Like-named read-outs stand apart in the source and are kept apart here.
Key:
[1] = system: healthy male volunteers
[2] = rat, over the tested dose range
[3] = system: Ang-II-stimulated aldosterone synthesis; assay: animal or person; conditions: Rattus norvegicus, po, read-out: ED50 for inhibiting Ang-II-stimulated aldosterone response
[4] = monkey, 15–150 μg/kg
[5] = molecular target: aldosterone synthase (CYP11B2), rat adrenal homogenate (Rattus norvegicus, UniProt P30099); assay: biochemical
[6] = system: healthy male volunteers; assay: Human safety and tolerability; type: in vivo
[7] = system: ACTH-stimulated plasma aldosterone and cortisol
[8] = in vitro; conditions: rat, plasma
[9] = molecular target: 11β-hydroxylase (CYP11B1), rat adrenal homogenate (Rattus norvegicus, UniProt P15393); assay: biochemical
Sequence of 11β-hydroxylase (CYP11B1), rat adrenal homogenate (P15393 25-499): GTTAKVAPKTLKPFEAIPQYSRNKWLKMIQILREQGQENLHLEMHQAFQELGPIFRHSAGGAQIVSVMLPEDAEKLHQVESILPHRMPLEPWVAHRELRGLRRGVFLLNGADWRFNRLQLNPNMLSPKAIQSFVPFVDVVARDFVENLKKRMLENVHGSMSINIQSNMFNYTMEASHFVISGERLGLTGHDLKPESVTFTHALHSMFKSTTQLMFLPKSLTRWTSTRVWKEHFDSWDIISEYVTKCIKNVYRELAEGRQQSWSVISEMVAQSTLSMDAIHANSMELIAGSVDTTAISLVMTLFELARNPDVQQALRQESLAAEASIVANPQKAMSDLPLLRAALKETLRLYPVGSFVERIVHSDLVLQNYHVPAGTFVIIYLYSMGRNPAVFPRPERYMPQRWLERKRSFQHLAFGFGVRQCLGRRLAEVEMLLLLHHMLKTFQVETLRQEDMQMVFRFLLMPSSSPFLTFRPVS

[10] = in vivo; conditions: male, cynomolgus monkey, plasma, po
[11] = system: dTG rats overexpressing human renin and angiotensinogen; assay: Survival study in young dTG rats; type: in vivo, rat
[12] = system: human CYP11B2; set-up: method as in PMID 24899257; conditions: recombinant hamster fibroblasts expressing human CYP11B1 and CYP11B2; read-out: IC50, inhibition of aldosterone synthesis; cited from earlier work
[13] = system: patients with primary aldosteronism; conditions: 14 patients, 0.5 mg and 1 mg twice daily, 4 weeks; cited from earlier work
[14] = system: ACTH-stimulated aldosterone, cortisol and precursors; assay: Human ACTH (cortisol) stimulation test, multiple-dose phase; type: in vivo
[15] = system: ACTH-stimulated aldosterone and corticosterone synthesis; conditions: rat, ACTH stimulation
[16] = system: dTG rats overexpressing human renin and angiotensinogen; type: in vivo; conditions: dTG rats, LCI699 3–100 mg/kg/day
[17] = molecular target: aldosterone synthase (CYP11B2), monkey adrenal homogenate (Macaca fascicularis, UniProt A0A2K5UPL9); assay: biochemical
Sequence of aldosterone synthase (CYP11B2), monkey adrenal homogenate (A0A2K5UPL9 1-503): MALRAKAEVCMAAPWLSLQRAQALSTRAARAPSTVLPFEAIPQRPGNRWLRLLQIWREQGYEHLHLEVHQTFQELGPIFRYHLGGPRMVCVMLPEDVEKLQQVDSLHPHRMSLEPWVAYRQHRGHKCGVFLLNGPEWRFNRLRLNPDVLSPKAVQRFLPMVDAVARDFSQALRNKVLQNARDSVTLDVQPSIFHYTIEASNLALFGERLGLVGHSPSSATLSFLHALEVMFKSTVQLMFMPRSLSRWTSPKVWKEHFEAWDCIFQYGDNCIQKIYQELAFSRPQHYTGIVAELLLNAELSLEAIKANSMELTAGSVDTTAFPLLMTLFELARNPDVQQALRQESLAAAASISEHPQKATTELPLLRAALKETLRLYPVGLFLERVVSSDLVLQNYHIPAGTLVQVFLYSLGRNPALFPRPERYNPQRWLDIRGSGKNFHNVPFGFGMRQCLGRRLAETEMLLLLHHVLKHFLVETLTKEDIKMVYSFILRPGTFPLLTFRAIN

[18] = system: patients with Cushing’s disease; conditions: 12 patients, 2–50 mg twice daily, cited from earlier work
[19] = system: dTG rats with pre-established cardiorenal disease; assay: Survival study in older, enalapril-pre-treated dTG rats with established cardiorenal disease; type: in vivo, rat; conditions: older dTG rats
[20] = clinical; conditions: male, human, plasma; for half-life: t½
[21] = system: patients with essential hypertension; conditions: cited from earlier work
[22] = in vitro; conditions: human, plasma
[23] = system: Ang II-stimulated aldosterone release; set-up: method as in D. Rigel, personal communication; conditions: dogs; ref D. Rigel, personal communication; read-out: EC50, inhibition of Ang II-stimulated aldosterone release; cited from earlier work
[24] = system: ACTH-stimulated aldosterone and corticosterone synthesis; assay: animal or person; conditions: Rattus norvegicus; for ED50: po
[25] = molecular target: recombinant rat aldosterone synthase (CYP11B2) (Rattus norvegicus, UniProt P30099); assay: biochemical
Sequence of recombinant rat aldosterone synthase (CYP11B2) (P30099 35-510): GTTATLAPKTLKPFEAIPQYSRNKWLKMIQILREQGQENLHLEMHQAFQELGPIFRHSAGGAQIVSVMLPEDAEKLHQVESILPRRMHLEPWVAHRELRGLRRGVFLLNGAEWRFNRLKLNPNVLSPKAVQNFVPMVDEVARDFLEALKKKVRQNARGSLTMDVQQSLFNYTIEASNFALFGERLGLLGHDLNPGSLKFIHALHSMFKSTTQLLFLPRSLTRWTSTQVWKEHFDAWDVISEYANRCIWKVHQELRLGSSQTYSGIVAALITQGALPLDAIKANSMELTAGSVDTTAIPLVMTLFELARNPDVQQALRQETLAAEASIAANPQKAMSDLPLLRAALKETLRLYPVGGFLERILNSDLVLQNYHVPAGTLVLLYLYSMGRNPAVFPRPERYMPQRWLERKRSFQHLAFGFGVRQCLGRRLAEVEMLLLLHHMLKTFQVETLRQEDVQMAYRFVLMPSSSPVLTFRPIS

[26] = system: Ang-II-stimulated aldosterone synthesis; conditions: rat, Ang II stimulation
[27] = dogs, ref D. Rigel, personal communication, cited from earlier work
[28] = in vitro; conditions: monkey, plasma
[29] = approximately 2 h after oral dosing
[30] = oral, single-dose phase, doses up to 200 mg
[31] = 524 patients, 0.25 to 1 mg, 8 weeks

Sequence of aldosterone synthase (CYP11B2), rat adrenal homogenate (P30099 35-510): as above

N#Cc1ccc([C@H]2CCc3cncn32)c(F)c1 [LCI699]
plateau of maximal inhibition of plasma aldosterone ([1]; at the 10 mg single dose, no further reduction up to 200 mg): approximately 80% | increase in 11-deoxycortisol ([1]; single dose 100 mg): 942% | increase in 11-deoxycortisol ([1]; single dose 200 mg): 584% | decrease in plasma cortisol ([1]; single dose 200 mg, 24 h post-dose, P = 0.029 vs placebo): 19% | effect on plasma cortisol ([1]; single doses 3–100 mg): did not significantly alter | reductions in 24-h urinary cortisol ([1]; single doses of 30, 100 or 200 mg): 34–42% | dose proportionality of pharmacokinetics [2]: dose-proportional | ED50 [3]: 0.6 mg/kg | dose proportionality of pharmacokinetics [4]: dose-proportional | IC50 [5]: 802 nM | subjects with plasma sodium levels at or below 135 mmol/L ([6]; LCI699 0.5 mg, multiple-dose phase): two | subjects with pre-specified markers of hypoaldosteronism (mild hyponatremia, postural tachycardia, decreased body weight), discontinued ([6]; LCI699 3 mg, multiple-dose): three | subjects with plasma sodium levels at or below 135 mmol/L ([6]; LCI699 3 mg, multiple-dose phase): four | tolerability ([6]; healthy subjects, single doses up to 200 mg, multiple doses): well tolerated | adverse events considered severe (abnormal ACTH-stimulation test) ([6]; multiple-dose phase, LCI699 10 mg): only one adverse event | changes in supine systolic or diastolic blood pressure or heart rate compared with placebo ([6]; single or multiple doses): no consistent changes | maximal inhibition of aldosterone production at the upper dose ([7]; Ang-II- and ACTH-stimulation models in rats and monkeys): 80–90% | decrease in ACTH-stimulated plasma aldosterone response compared with vehicle control ([7]; monkey, 150 μg/kg oral, 3 h prior to ACTH): ~90% | inhibition of ACTH-stimulated cortisol synthesis ([7]; monkey, 5–150 μg/kg oral): No significant inhibition | recovery of plasma aldosterone levels ([7]; monkey, 5–150 μg/kg oral): returned to baseline 24 h after dosing | fraction unbound [8]: 0.641 | IC50 [9]: 3050 nM | Tmax [10]: 0.9 to 3.5 h | half-life [10]: 1 to 2 h | doses at which survival was significantly prolonged ([11]; young dTG rats without established cardiorenal disease, P < 0.01): ≥ 10 mg/kg/day | maximum median survival time ([11]; young dTG rats, dose–median survival curves): 9.5 weeks | IC50 [12]: […] | effect on plasma and urinary aldosterone levels [13]: effectively reduced | mean decrease in ambulatory systolic blood pressure [13]: 4 mmHg | peak reduction of ACTH-stimulated cortisol levels from baseline ([14]; LCI699 0.5 mg, Day 6): 1.8% | effect on ACTH-stimulated 11-DOC levels ([14]; LCI699 0.5 mg, eplerenone 100 mg): no significant effect | maximal increase in ACTH-stimulated 11-DOC from baseline ([14]; LCI699 1 mg, Day 6): 95% | peak reduction of ACTH-stimulated cortisol levels from baseline ([14]; LCI699 1 mg, Day 6): 11% | effect on ACTH-stimulated cortisol response ([14]; LCI699 1 mg, Day 13): attenuation of the ACTH-stimulated cortisol response | maximal increase in ACTH-stimulated 11-DOC from baseline ([14]; LCI699 3 mg, Day 6): 407% | peak increase in ACTH-stimulated 11-deoxycortisol from baseline ([14]; LCI699 3 mg, Day 6): 82% | peak reduction of ACTH-stimulated cortisol levels from baseline ([14]; LCI699 3 mg, Day 6): 22% | increase in ACTH-stimulated 11-DOC levels ([14]; LCI699 3 mg, Day 13): 168% | peak increase in ACTH-stimulated 11-deoxycortisol from baseline ([14]; LCI699 3 mg, Day 13): 114% | time to complete reversal of cortisol suppression after discontinuing ([14]; LCI699 10 mg): 4 to 9 days | effect on ACTH-stimulated cortisol ([14]; LCI699 10 mg, Days 6 and 10): further suppressed | peak inhibition of ACTH-stimulated aldosterone levels from baseline (Day −2) ([14]; LCI699 0.5–3 mg, Day 6): 41–64% | effect on cortisol precursors (ACTH-stimulated) ([14]; eplerenone 100 mg and lower doses of LCI699 (0.5, 1 mg), Day 6 or Day 13): no significant effect | dose above which inhibition of stimulated plasma aldosterone shows an apparent plateau ([15]; oral): > 10 mg/kg | Maximal reduction in plasma aldosterone from baseline [15, 29]: 80% | effect on urinary corticosterone excretion [16]: reduced | effect on LV fractional shortening ([16]; eplerenone 30 mg/kg): dose-dependently increased | effect on myocardial cell size ([16]; eplerenone 30 mg/kg): normalized | effect on BUN levels ([16]; eplerenone 30 mg/kg/day): dose-dependently normalized | effect on mean arterial pressure ([16]; eplerenone 30 mg/kg/day): neither LCI699 nor eplerenone normalized arterial pressure | effect on serum potassium ([16]; eplerenone 30 mg/kg/day): corrected serum potassium in a dose-dependent manner | effect on urinary albumin excretion ([16]; eplerenone 30 mg/kg/day): dose-dependently normalized | effect on urinary aldosterone excretion ([16]; eplerenone 30 mg/kg/day): reduced | effect on urine output ([16]; eplerenone 30 mg/kg/day): dose-dependently normalized | effect on LV weight ([16]; eplerenone 30 mg/kg, data not shown): reduced | effect on water intake ([16]; data not shown): dose-dependently normalized | IC50 [17]: 12 ± 1 nM | patients with urinary free cortisol below upper limit of normal ([18]; 70 days): 11 patients | tolerability [18]: well tolerated | prolongation of median survival ([19]; 30 mg/kg/day in drinking water from 24 weeks of age, P = 0.07): 23 weeks | treated rats that died suddenly ([19]; LCI699 30 mg/kg/day, n = 7): two of the seven | Tmax [20, 30]: ~1 h | half-life ([20]; oral, after both single and multiple doses): ~4 h | half-life [20, 30]: ~4 h | Tmax ([20]; po, 0.5–3 mg once daily oral): ~1 h | hypertensive patients with attenuated ACTH-stimulated cortisol response ([21]; 1 mg once daily): approximately 20% | placebo-corrected reduction in ambulatory diastolic blood pressure [21, 31]: 3–6 mmHg | placebo-corrected reduction in ambulatory systolic blood pressure [21, 31]: 6–9 mmHg | subjects with suppressed ACTH-stimulated cortisol release ([21]; total daily dose of 1 mg): approximately 20% | fraction unbound [22]: 0.734 | EC50 [23]: 41 nM | ED50 ([24]; read-out: ED50 for inhibiting ACTH-stimulated aldosterone): 1.1 mg/kg | ED50 ([24]; read-out: ED50 for inhibiting ACTH-stimulated corticosterone): 73 mg/kg | EC50 ([24]; read-out: EC50 for inhibiting ACTH-stimulated aldosterone): 771 nM | EC50 ([24]; read-out: EC50 for inhibiting ACTH-stimulated corticosterone): 36000 nM | IC50 [25]: 160 ± 9 nM | dose above which inhibition of stimulated plasma aldosterone shows an apparent plateau ([26]; oral): above 1 mg/kg | Maximal reduction in plasma aldosterone from baseline [26, 29]: 80% | oral bioavailability ([27]; 1 mg/kg oral dose): 96% | half-life [27]: 0.6 to 3.6 h | fraction unbound [28]: 0.734
